Structures can show the parent of a compound that is named as a salt.
Assays:
[1] = Solubility test; type: physicochemical; conditions: in water at 25° C.±2° C.
Experimental: The fine powder of the test sample was weighed into an appropriate amount of water at 25° C.±2° C. and shaken vigorously for 30 seconds every 5 minutes so that it was fully dissolved within 30 minutes. If no visible solute particles were observed, it was considered completely dissolved. “Readily soluble” means that 1 g of the test sample could be dissolved in 1-10 ml of water; and “soluble” means that 1 g of the test sample could be dissolved in 10-30 ml of water; “slightly soluble” means that 1 g of the test sample could be dissolved in 30-100 ml of water; and “sparingly soluble” means that 1 g of the test sample could be dissolved in 100-1,000 ml of water; “nearly insoluble or insoluble” means that 1 g of the test sample could not be completely dissolved in 10,000 ml of water.

[2] = system: HL-60 (FLT3 wild type); experiment: In vitro growth inhibition (GI50), HL-60; type: cell-based; conditions: Homo sapiens, Cell lines of leukemia, read-out: GI 50 HL60 FLT3 (WT)
Outline: (§1)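 After 3–5 days of treatment (top concentration 5,000 nM, serially diluted 2- or 10-fold to 0.01 nM, solvent ≤1%), viability was read by CCK8 at OD450. Growth rate was normalised to the time-zero and solvent-control wells, and GI50 was derived from the curve. Cultures in RPMI1640 + 10% FBS.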

[3] = system: RAMOS (positive expression of Brutons tyrosine protein kinase); experiment: In vitro growth inhibition (GI50), RAMOS; type: cell-based; conditions: Homo sapiens, Cell lines of leukemia, read-out: GI 50 Ramos BTK
[4] = system: KG-1 (expressing FGFR1OP2-FGFR1 fusion protein); experiment: In vitro growth inhibition (GI50), KG-1; type: cell-based; conditions: Homo sapiens; Cell lines of leukemia; read-out: GI 50 KG-1 FGFR1OP 2-FGFR1
[5] = system: K562 (FLT3 negative expression, positive expression of BCR-ABL fusion protein); experiment: In vitro growth inhibition (GI50), K562; type: cell-based; conditions: Homo sapiens, Cell lines of leukemia, read-out: GI 50 K562 BCR-ABL
[6] = system: MOLM-13 (FLT3 ITD+/− mutant type); experiment: In vitro growth inhibition (GI50), MOLM-13; type: cell-based, human; conditions: Homo sapiens, MOLM-13; Cell lines of leukemia; read-out: GI 50 MOLM-13 FLT3 (ITD+/−)
[7] = system: OCI-AML3 (NPMc+ mutant type); experiment: In vitro growth inhibition (GI50), OCI-AML3; type: cell-based; conditions: Homo sapiens, OCI-AML-3; Cell lines of leukemia; read-out: GI 50 OCI- AML3 NPMc+
[8] = system: RS4; 11 (FLT3 wild type); experiment: In vitro growth inhibition (GI50), RS4; 11; type: cell-based, human; conditions: Homo sapiens, RS4-11; Cell lines of leukemia; read-out: GI 50 RS4: 11 FLT3 (WT)
[9] = system: MV4-11 (FLT3 ITD+/+ mutant type); experiment: In vitro growth inhibition (GI50), MV4-11; type: cell-based, human; conditions: Homo sapiens, MV4-11; Cell lines of leukemia; read-out: GI 50 MV4-11 FLT3 (ITD +/+)
[10] = system: Kasumi-1 (c-Kit N822K mutant type); experiment: In vitro growth inhibition (GI50), Kasumi-1; type: cell-based; conditions: Homo sapiens, Cell lines of leukemia, read-out: GI 50 Kasumi-1 Kit (N822K)
Outline: as §1

[11] = system: U937 (FLT3 wild-type); experiment: In vitro growth inhibition (GI50), U937; type: cell-based; conditions: Homo sapiens, U-937; Cell lines of leukemia; read-out: GI 50 U937 FLT 3(WT)

CN(C)CCCOc1ccc2c(c1)ncn2-c1ccc(NC(=O)Nc2cc(C(C)(C)C)n[nH]2)cc1 [Compound 81 Mesylate]
Solubility [1]: readily soluble (“Readily soluble” means that 1 g of the test sample could be dissolved in 1-10 ml of water)

CC(C)(C)c1cc(NC(=O)Nc2ccc(-n3cnc4cc(OCCN5CCOCC5)ccc43)cc2)[nH]n1 [Compound 89 Mesylate, 1-(5-tert-butyl-2H-pyrazol-3-yl)-3-{4-[5-(2-morpholin-4-yl-ethoxyl)-benzimidazol-1-yl]-phenyl}-urea]
Solubility [1]: readily soluble (“Readily soluble” means that 1 g of the test sample could be dissolved in 1-10 ml of water)

COCCOc1ccc2ncn(-c3ccc(NC(=O)Nc4cc(C(C)(C)C)n[nH]4)cc3)c2c1 [Compound 98 Mesylate, 1-(5-tert-butyl-2H-pyrazol-3-yl)-3-{4-[6-(2-methoxyl-ethoxyl)-benzimidazol-1-yl]-phenyl}-urea]
Solubility [1]: readily soluble (“Readily soluble” means that 1 g of the test sample could be dissolved in 1-10 ml of water)

COCCOc1ccc2c(c1)ncn2-c1ccc(NC(=O)Nc2cc(C(C)(C)C)n[nH]2)cc1 [Compound 77 Trifluoroacetates, 1-(5-tert-butyl-2H-pyrazol-3-yl)-3-{4-[5-(2-methoxyl-ethoxyl)-benzimidazol-1-yl]-phenyl}-urea]
Solubility ([1]; listed as 77 Trifluoroacetates): slightly soluble (“slightly soluble” means that 1 g of the test sample could be dissolved in 30-100 ml of water)

COCCOc1ccc2c(c1)ncn2-c1ccc(NC(=O)Nc2cc(C(C)(C)C)n[nH]2)cc1 [Compound 77 Hydrochloride, 1-(5-tert-butyl-2H-pyrazol-3-yl)-3-{4-[5-(2-methoxyl-ethoxyl)-benzimidazol-1-yl]-phenyl}-urea]
Solubility ([1]; listed as 77 Hydrochloride): slightly soluble (“slightly soluble” means that 1 g of the test sample could be dissolved in 30-100 ml of water)

COc1cc2ncn(-c3ccc(NC(=O)n4nc(C(C)(C)C)cc4N)cc3)c2cc1OC [Compound 129 Mesylate, 5-amino-3-tert-butyl-pyrazol-1-carboxylic acid [4-(5,6-dimethoxyl-benzimidazol-1-yl)-phenyl]-amide]
Solubility [1]: readily soluble (“Readily soluble” means that 1 g of the test sample could be dissolved in 1-10 ml of water)

COCCOc1ccc2c(c1)ncn2-c1ccc(NC(=O)Nc2cc(C(C)(C)C)n[nH]2)cc1 [Compound 77 p-toluenesulfonate, 1-(5-tert-butyl-2H-pyrazol-3-yl)-3-{4-[5-(2-methoxyl-ethoxyl)-benzimidazol-1-yl]-phenyl}-urea]
Solubility ([1]; listed as 77 p-toluenesulfonate): slightly soluble (“slightly soluble” means that 1 g of the test sample could be dissolved in 30-100 ml of water)

COCCOc1ccc2c(c1)ncn2-c1ccc(NC(=O)Nc2cc(C(C)(C)C)n[nH]2)cc1 [Compound 77 Benzene sulfonate, 1-(5-tert-butyl-2H-pyrazol-3-yl)-3-{4-[5-(2-methoxyl-ethoxyl)-benzimidazol-1-yl]-phenyl}-urea]
Solubility ([1]; listed as 77 Benzene sulfonate): slightly soluble (“slightly soluble” means that 1 g of the test sample could be dissolved in 30-100 ml of water)

COc1ccc2c(c1)ncn2-c1ccc(NC(=O)Nc2cc(C(C)(C)C)n[nH]2)cc1 [Compound 71 Hydrochloride, 1-(5-tert-butyl-2H-pyrazol-3-yl)-3-[4-(5-methoxyl-benzimidazol-1-yl)-phenyl]-urea]
Solubility ([1]; listed as 71 Hydrochloride): slightly soluble (“slightly soluble” means that 1 g of the test sample could be dissolved in 30-100 ml of water)

CC(C)(C)c1cc(NC(=O)Nc2ccc(-n3cnc4cc(OCCN5CCOCC5)ccc43)cc2)no1 [Compound 16 Mesylate, 1-(5-tert-butyl-isoxazol-3-yl)-3-{4-[5-(2-morpholin-4-yl-ethoxyl)-benzimidazol-1-yl]-phenyl}-urea]
Solubility ([1]; listed as 16 Mesylate): readily soluble (“Readily soluble” means that 1 g of the test sample could be dissolved in 1-10 ml of water)

CCCCCCOc1ccc2c(c1)ncn2-c1ccc(NC(=O)n2nc(C(C)(C)C)cc2N)cc1 [Compound 117 Mesylate, 5-amino-3-tert-butyl-pyrazol-1-carboxylic acid [4-(5-hexyloxyl-benzimidazol-1-yl)-phenyl]-amide]
Solubility [1]: readily soluble (“Readily soluble” means that 1 g of the test sample could be dissolved in 1-10 ml of water)

CC(C)(C)c1cc(NC(=O)Nc2ccc(-n3cnc4cc(F)ccc43)cc2)no1 [Compound 22, 1-(5-tert-butyl-isoxazol-3-yl)-3-[4-(5-fluoro-benzimidazol-1-yl)-phenyl]-urea]
GI50 [2]: > 1000 nM | GI50 [3]: > 1000 nM | GI50 [4]: > 1000 nM | GI50 [5]: > 1000 nM | GI50 [6]: 0.1 to 1 nM | GI50 [7]: > 1000 nM | GI50 [8]: > 1000 nM | GI50 [9]: 0.1 to 1 nM | GI50 [10]: > 1000 nM | GI50 [11]: > 1000 nM

CC(C)(C)c1cc(N)n(C(=O)Nc2ccc(-n3cnc4cc(C(F)(F)F)ccc43)cc2)n1 [Compound 126, 5-amino-3-tert-butyl-pyrazol-1-carboxylic acid [4-(5-trifluoromethyl-benzimidazol-1-yl)-phenyl]-amide]
GI50 [2]: > 1000 nM | GI50 [3]: > 1000 nM | GI50 [4]: > 1000 nM | GI50 [5]: > 1000 nM | GI50 [6]: 10 to 100 nM | GI50 [7]: > 1000 nM | GI50 [8]: > 1000 nM | GI50 [9]: 10 to 100 nM | GI50 [10]: > 1000 nM | GI50 [11]: > 1000 nM

CCOc1ccc2c(c1)ncn2-c1ccc(NC(=O)Nc2cc(C(C)(C)C)on2)cc1 [Compound 6, 1-(5-tert-butyl-isoxazol-3-yl)-3-[4-(5-ethoxyl-benzimidazol-1-yl)-phenyl]-urea]
GI50 [2]: > 1000 nM | GI50 [3]: > 1000 nM | GI50 [4]: > 1000 nM | GI50 [5]: > 1000 nM | GI50 [6]: 0.1 to 1 nM | GI50 [7]: > 1000 nM | GI50 [8]: > 1000 nM | GI50 [9]: 0.1 to 1 nM | GI50 [10]: > 1000 nM | GI50 [11]: > 1000 nM

CC(C)(C)c1cc(NC(=O)Nc2ccc(-n3cnc4ccccc43)cc2)on1 [Compound 133, 1-(4-benzimidazol-1-yl-phenyl)-3-(3-tert-butyl-isoxazol-5-yl)-urea]
GI50 [2]: > 1000 nM | GI50 [3]: > 1000 nM | GI50 [4]: > 1000 nM | GI50 [5]: > 1000 nM | GI50 [6]: 1 to 10 nM | GI50 [7]: > 1000 nM | GI50 [8]: > 1000 nM | GI50 [9]: 1 to 10 nM | GI50 [10]: > 1000 nM | GI50 [11]: > 1000 nM

CC(C)(C)c1cc(NC(=O)Nc2ccc(-n3cnc4cc(OCC5CCCCO5)ccc43)cc2)[nH]n1 (stereo not drawn) [Compound 87, 1-(5-tert-butyl-2H-pyrazol-3-yl)-3-{4-[5-(tetrahydro-pyran-2-ylmethoxy)-benzimidazol-1-yl]-phenyl}-urea]
GI50 [2]: > 1000 nM | GI50 [3]: > 1000 nM | GI50 [4]: > 1000 nM | GI50 [5]: > 1000 nM | GI50 [6]: 0.1 to 1 nM | GI50 [7]: > 1000 nM | GI50 [8]: > 1000 nM | GI50 [9]: 0.1 to 1 nM | GI50 [10]: > 1000 nM | GI50 [11]: > 1000 nM

CC(C)(C)c1cc(NC(=O)Nc2ccc(-n3cnc4cc(Oc5nsnc5N5CCOCC5)ccc43)cc2)[nH]n1 [Compound 95, 1-(5-tert-butyl-2H-pyrazol-3-yl)-3-{4-[5-(4-morpholin-4-yl-[1,2,5]thiadiazol-3-yloxy)-benzimidazol-1-yl]-phenyl}-urea]
GI50 [2]: > 1000 nM | GI50 [3]: > 1000 nM | GI50 [4]: > 1000 nM | GI50 [5]: > 1000 nM | GI50 [6]: 1 to 10 nM | GI50 [7]: > 1000 nM | GI50 [8]: > 1000 nM | GI50 [9]: 1 to 10 nM | GI50 [10]: > 1000 nM | GI50 [11]: > 1000 nM

CC(C)c1cc(NC(=O)Nc2ccc(-n3cnc4ccccc43)cc2)on1 [Compound 132, 1-(4-benzimidazol-1-yl-phenyl)-3-(3-isopropyl-isoxazol-5-yl)-urea]
GI50 [2]: > 1000 nM | GI50 [3]: > 1000 nM | GI50 [4]: > 1000 nM | GI50 [5]: > 1000 nM | GI50 [6]: 10 to 100 nM | GI50 [7]: 100 to 1000 nM | GI50 [8]: > 1000 nM | GI50 [9]: 10 to 100 nM | GI50 [10]: > 1000 nM | GI50 [11]: > 1000 nM

From US10647680B2, “Urea compound, preparation method therefor and medical use thereof” (Ancureall Pharmaceutical (Shanghai) Co., Ltd., priority 2016, dated 2020)
